Values of other authors in patent publication US20200215051A1, “NEBULIZATION COMPOSITION COMPRISING TIOTROPIUM AND INDACATEROL” (GLENMARK SPECIALTY S.A., priority 2019, published 2020).

Conditions: water

aqueous solubility: very slightly soluble in water
SMILES: CCc1cc2c(cc1CC)CC(NC[C@H](O)c1ccc(O)c3[nH]c(=O)ccc13)C2 [Indacaterol, 5-[(1R)-2-[(5,6-diethyl-2,3-dihydro-1H-inden-2-yl)amino]-1-hydroxyethyl]-8-hydroxy-1H-quinolin-2-one]
